Results as given in patent US20130224285A1, “ESTROGEN RECEPTOR ALPHA POLYPEPTIDE SEQUENCE, DIAGNOSTIC AND THERAPEUTIC APPLICATIONS THEREOF” (Universite Libre de Buxelles, priority 2010, published 2013).
Residues, ends and D or L forms follow the SMILES beside them. No end group written: not given here. *: point of attachment. Cbz = O=C(OCc1ccccc1)*

Experiments:
proteasome = conditions: inhibition of the proteasome; Nawaz et al. 1999 and others; cited from earlier work
MCF-7 cells = assay: Immunoprecipitation (G20 antibody) and Western blot of the endogenous ER-alpha degradation peptide in conditioned medium of treated MCF-7 cells; format: cell-based, human; conditions: conditioned medium of MCF-7 cells; estradiol 10^-8M, diethylstibestrol 10^-8M, 4-OHTamoxifen 10^-7M, Fulvestrant 10^-7M; vs control; FIG. 3; preliminary
Method: MCF-7 breast cancer cell line was cultured for 48 hours in EMEM without Phenol-red, comprising 2 mM glutamine, 100 U/ml penicilline and 100 μg/ml streptomycine, supplemented with 10% steroid-free fetal calf serum. After three washing steps with serum/antibiotic-free EMEM without Phenol-red, the cells were cultured for 4 hours in the presence or absence of the E2 ligand dissolved in serum/antibiotic-free EMEM without Phenol-red, containing only 2 mM glutamine.
After preclearing with 100 μl (50%) immobilised protein G on agarose beads (UltraLink®, Pierce) (2 hours at 4° C.) conditioned media (or EMEM for the negative control) were incubated with antibody G20 (Santa-Cruz) (except for the negative control) overnight at 4° C. After antibody capturing in 100 μl (50%) immobolised proteine G, the resin is heated to 85° C. for 5 minutes in Laemmli without colorant. The protein samples are subsequently separated on a Tris-Tricine 10% (Invitrogen) gel and the peptides are transferred to nitro-cellulose membranes (15% methanol; semi-dry transfer (BioRad apparatus; 24 V; 0.15 mA, 15 minutes). After blocking with 5% milk for 30 minutes, the proteins are detected with chemiluminescence (primary antibody: G20 (1/500; 2 hours); secondary antibody: anti-rabbit (Pierce; 1/6000; 1 hour). […]

[1] = test system: MCF-7 breast cancer cell line; assay: MCF-7 cell growth with synthetic peptides, crystal violet staining; format: cell-based, human; conditions: 10^-5M, 72 hours, EMEM with 10% charcoal-stripped serum, vs control, FIG. 4
Method: In order to provide a proof of principle that secretion of the ER-alpha breakdown product/peptide described here could relay or amplify the effect of estradiol toward the proliferation of ER-alpha-positive cells, we have treated MCF-7 cells with a synthetic peptide corresponding to this sequence (SEQ ID NO:2) and containing its post-translational modifications (FIG. 4). ER-alpha-positive MCF-7 breast cancer cell line were seeded in 96-well plates (3000 cells/well). Cells were then treated with or without (control) ER-alpha-17p or the SEQ ID NO:2 peptide both at 10^−5M for 72 hours. Cell growth was measured by crystal violet staining. Briefly, cell cultures were gently washed once with PBS, fixed with 1% glutaraldehyde in PBS (15 min, room temperature) and stained with 0.1% crystal violet (w/v in ddH2O; 30 min, room temperature). After removal of excess dye by rinsing under gently running tap water, cell-bound crystal violet was extracted with 1% Triton X-100 (v/v in ddH2O; room temperature, under agitation) and measured by spectrometry at 550 nm.

ER-alpha = assay: ERE-driven luciferase reporter assay in MVLN cells; format: cell-based, human; conditions: 10^-5M, 6 hours, serum free, FIG. 6, preliminary
Description: In order to provide a proof of principle that secretion of the ER-alpha breakdown product/peptide described here could relay or amplify the effect of estradiol toward ER-alpha transcriptional activity, we have treated MVLN cells (MCF-7 stably transfected with an ERE-driven luciferase reporter gene; Pons et al., Biotechniques 1990; 9:450-459) with a synthetic peptide corresponding to this sequence (SEQ ID NO:2) and containing its post-translational modifications in serum free condition (FIG. 6).
MVLN cells were cultured for 48 hours in EMEM containing 10% of charcoal-stripped serum prior treatment with E2 at 10^−10 M or ER-alpha-17p or SEQ ID NO:2 both at 10^−5M for. After 6 h treatment in serum free condition, cells were washed 2 times with PBS. Luciferase activity was then measured in cell lysates by luminometry using Luciferase Assay System (Promega) according to manufacturer instructions.

[2] = target: T1, purified recombinant human ER-alpha (Homo sapiens, UniProt P03372); conditions: Gallo et al. 2007; cited from earlier work
T1 sequence (P03372 1-595): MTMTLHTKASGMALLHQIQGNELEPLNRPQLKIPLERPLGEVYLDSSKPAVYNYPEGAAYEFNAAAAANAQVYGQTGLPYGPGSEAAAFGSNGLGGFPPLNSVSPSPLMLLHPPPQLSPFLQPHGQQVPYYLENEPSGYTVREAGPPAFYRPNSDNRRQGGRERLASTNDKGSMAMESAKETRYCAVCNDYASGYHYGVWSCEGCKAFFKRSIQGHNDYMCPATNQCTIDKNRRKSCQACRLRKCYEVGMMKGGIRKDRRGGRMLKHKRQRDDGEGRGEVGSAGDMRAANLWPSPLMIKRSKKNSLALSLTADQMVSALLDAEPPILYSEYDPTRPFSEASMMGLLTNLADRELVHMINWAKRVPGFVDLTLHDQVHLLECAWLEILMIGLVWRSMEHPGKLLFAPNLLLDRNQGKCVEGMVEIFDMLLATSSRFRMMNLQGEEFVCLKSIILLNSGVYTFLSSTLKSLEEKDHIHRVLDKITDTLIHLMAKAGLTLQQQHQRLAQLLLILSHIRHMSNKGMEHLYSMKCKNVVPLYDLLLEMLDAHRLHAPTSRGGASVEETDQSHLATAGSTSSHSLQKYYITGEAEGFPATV

ER-alpha receptor = conditions: competition with synthetic peptide; Gallo et al. 2007; cited from earlier work
[3] = test system: breast cancer cell lines that are ER-alpha-positive; conditions: Gallo et al. 2007, 2008; cited from earlier work

CC(=O)N[C@@H](CSC(=O)[C@]1([C@@H](O)C(C)C)NC(=O)[C@H](C)[C@@H]1O)C(=O)O [lactacystine]
ER-alpha-dependent transcription (proteasome): diminishes ER-alpha-dependent transcription

CC/C(=C(\c1ccc(O)cc1)c1ccc(OCCN(C)C)cc1)c1ccccc1 [4-OHTamoxifen]
production of the endogenous ER-alpha degradation product/peptide (MCF-7 cells): decrease its production

K268RQRDDGEGRGEVGSAGDMRAANLWPSPLMIKRSKKNSLALSLT311 (KRQRDDGEGRGEVGSAGDMRAANLWPSPLMIKRSKKNSLALSLT; listed as Homo Sapiens) [SEQ ID NO:2, endogenous 44-residue ER-alpha degradation peptide K268-T311]
MCF-7 cell proliferation (growth) ([1]; listed as ER-alpha-44p): capable of inducing proliferation of cancer cells | MCF-7 cell proliferation (growth) ([1]; listed as SED ID NO:2): significant increase of their proliferation higher that the control ER-alpha-17p peptide | ER-alpha transcriptional activity (luciferase) (ER-alpha): significant increase of the ER-alpha transcriptional activity higher than the control ER-alpha-17p peptide

C[C@]12CC[C@@H]3c4ccc(O)cc4C[C@@H](CCCCCCCCC[S+]([O-])CCCC(F)(F)C(F)(F)F)[C@H]3[C@@H]1CC[C@@H]2O (some centres unmarked) [Fulvestrant]
production of the endogenous ER-alpha degradation product/peptide (MCF-7 cells): decrease its production

P295LMIKRSKK303NSLALSLT311 (PLMIKRSKK(Me)NSLALSLT; listed as Homo Sapiens) [ER-alpha-17p]
MCF-7 cell proliferation (growth) [1]: capable of inducing proliferation of cancer cells | binding to purified recombinant human ER-alpha [2]: binds to purified recombinant human ER-alpha | transcriptional activity of the ER-alpha receptor (ER-alpha receptor): increased transcriptional activity | proliferation of ER-alpha-positive breast cancer cell lines [3]: increased proliferation

CC(C)C[C@@H](C=O)NC(=O)[C@H](CC(C)C)NC(=O)[C@H](CC(C)C)NC(=O)OCc1ccccc1 [MG-132] (Cbz-Leu-Leu-Leu-aldehyde)
ER-alpha-dependent transcription (proteasome): diminishes ER-alpha-dependent transcription
